Data from patent US6166013A, “Glucocortiocoid-selective agents” (Abbott Laboratories, priority 1999, dated 2000).
Like-named read-outs stand apart in the source and are kept apart here.

Key:
[1] = target: T1, human estrogen receptor-alpha (Homo sapiens, UniProt P03372); assay: soluble estrogen receptor-alpha (ER-α) binding assay, [3H]-estradiol
T1 construct: made in house; host or cells: yeast strain BJ2168 (copper induced)
T1 sequence (P03372 1-595): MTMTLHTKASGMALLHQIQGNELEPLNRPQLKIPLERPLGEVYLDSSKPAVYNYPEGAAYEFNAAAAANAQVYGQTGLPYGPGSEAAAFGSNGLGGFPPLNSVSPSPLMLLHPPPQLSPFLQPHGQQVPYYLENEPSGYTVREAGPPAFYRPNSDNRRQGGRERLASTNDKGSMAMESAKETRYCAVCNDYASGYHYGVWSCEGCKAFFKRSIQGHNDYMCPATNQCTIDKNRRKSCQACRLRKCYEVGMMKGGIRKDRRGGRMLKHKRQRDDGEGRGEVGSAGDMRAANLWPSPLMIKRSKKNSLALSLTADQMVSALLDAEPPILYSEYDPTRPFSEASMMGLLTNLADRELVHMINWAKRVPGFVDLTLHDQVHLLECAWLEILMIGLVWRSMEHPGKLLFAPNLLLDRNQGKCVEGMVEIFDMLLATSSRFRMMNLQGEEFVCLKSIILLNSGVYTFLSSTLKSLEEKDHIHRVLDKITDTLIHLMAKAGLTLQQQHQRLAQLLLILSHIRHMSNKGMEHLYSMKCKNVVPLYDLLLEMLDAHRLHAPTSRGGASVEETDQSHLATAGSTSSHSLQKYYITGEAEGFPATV
Text: For soluble estrogen receptor-alpha (ER-α) binding assays, [^3 H]- Estradiol (120-140 Ci/mmol) was purchased from New England Nuclear (Boston, Mass.), 17-beta estradiol was purchased from Sigma Chemical Co. (St. Louis, Mo.), CHAPS and DTT were purchased from Boehringer Mannheim GmbH (W. Germany) and all other reagents were purchased from Sigma.
The human estrogen receptor-alpha cDNA was cloned into a yeast vector termed pYhERα and used to transform wild type yeast strain BJ2168 following the protocol outlined by Pham, T. A., Hwung Y. P., Santiso-Mere,D., McDonnell D. P., O'Malley, B. W., Ligand-Dependent and Independent Function of the Transactivation Regions of the Human Estrogen Receptor in Yeast, Mol. Endocrinol. […] The yeast was induced with copper for 16 hours after which the cells were harvested, washed and the receptor extract prepared in cold buffer via a Bead Beater (BioSpec Products, Bartlesville, Okla.). Aliquots of the receptor typically contained 5-10 mg/ml of total protein and were stored at -80° C. until used. Estradiol or other competing compounds were prepared as 5 mM stock solutions in either 100% ethanol or DMSO and serial dilutions were carried out in 1:1 DMSO-ethanol. The assay buffer consisted of the following: 300 mM potassium chloride, 10 mM Trizma Base, 2 mM DTT and 5 mM CHAPS, pH=7.5 at room temperature.
Assays were set up using a 96-well minitube system and incubations were carried out at 4° C. for 18 hours. Equilibrium under these conditions of buffer and temperature was achieved by 6-8 hours. Nonspecific binding was defined as that binding remaining in the presence of 1000 nM unlabeled estradiol. […] The amount of receptor-ligand complex was determined by liquid scintillation counting of the hydroxyapatite pellet after the addition of […] EcoScint A scintillation cocktail from National Diagnostics (Atlanta, Ga.).
After correcting for nonspecific binding, IC50 values were determined. […] The IC50 values were determined graphically from a log-logit plot of the data.

[2] = target: T2, human glucocorticoid receptor-α [GRX] isoform (Homo sapiens, UniProt P04150); assay: glucocorticoid receptor (GR) cytosol binding assay, [3H]-dexamethasone; settings: displacement of [3H]-Dex (~0.9 nM), 4° C. overnight
T2 construct: purchased Ligand Pharmaceuticals (San Diego, Calif.); host or cells: insect SF21 cells (baculovirus)
T2 sequence (P04150 1-777): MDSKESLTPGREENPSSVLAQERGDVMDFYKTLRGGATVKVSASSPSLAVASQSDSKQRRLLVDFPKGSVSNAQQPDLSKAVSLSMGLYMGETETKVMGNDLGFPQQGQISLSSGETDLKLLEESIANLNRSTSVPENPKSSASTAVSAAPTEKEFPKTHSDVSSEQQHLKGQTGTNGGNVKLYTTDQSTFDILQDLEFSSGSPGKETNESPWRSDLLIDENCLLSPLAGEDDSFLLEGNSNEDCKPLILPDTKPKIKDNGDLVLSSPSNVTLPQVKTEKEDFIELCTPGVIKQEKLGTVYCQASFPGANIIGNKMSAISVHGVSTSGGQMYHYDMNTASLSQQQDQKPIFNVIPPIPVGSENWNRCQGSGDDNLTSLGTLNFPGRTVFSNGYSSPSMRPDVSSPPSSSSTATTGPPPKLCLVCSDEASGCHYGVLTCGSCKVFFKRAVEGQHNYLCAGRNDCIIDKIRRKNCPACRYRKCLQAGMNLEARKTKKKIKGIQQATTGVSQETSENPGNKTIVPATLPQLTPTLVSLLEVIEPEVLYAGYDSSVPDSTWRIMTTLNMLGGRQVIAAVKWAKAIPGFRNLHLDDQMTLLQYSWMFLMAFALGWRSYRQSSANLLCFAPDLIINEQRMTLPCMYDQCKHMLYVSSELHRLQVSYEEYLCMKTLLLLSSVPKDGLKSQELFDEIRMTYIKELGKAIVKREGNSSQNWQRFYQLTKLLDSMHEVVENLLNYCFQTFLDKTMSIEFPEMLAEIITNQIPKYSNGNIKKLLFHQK
Text: Briefly, cytosol preparations of human glucocorticoid receptor-α [GRX] isoform and human progesterone receptor-A [PRA] isoform were obtained from Ligand Pharmaceuticals (San Diego, Calif.). Both receptor cDNAs were cloned into baculovirus expression vectors and expressed in insect SF21 cells. [^3 H]-dexamethasone (Dex, specific activity 82-86 Ci/mmole) and [^3 H]-progesterone (Prog, specific activity 97-102 Ci/mmol) were purchased from Amersham Life Sciences (Arlington Heights, Ill.). Glass fiber type C multiscreen MAFC NOB plates were from Millipore (Burlington, Mass.). Hydroxyapatide Bio-Gel HTP gel was obtained from Bio-Rad Laboratories (Hercules, Calif.). Tris(hydroxymethyl)aminomethane (Tris), ethylenediaminetetraacetic acid (EDTA), glycerol, dithiothreitol (DTT) and sodium moylybdate were obtained from Sigma Chemicals (St. Louis, Mo.). […]
After an overnight incubation, 50 μL of hydroxyapatite (25% weight/volume) slurry were added to each well and plates were incubated for 10 min at 4° C. in a plate shaker. […] The amount of radioactivity was determined with a Packard TopCount plate reader.
The Ki of test compounds was determined using the Cheng-Prusoff equation Ki =IC50 /(1+[L*]/[KL ]) where L* is the concentration of radioligand and KL is the dissociation constant of the radioligand determined from saturation analysis.

[3] = displacement of [3H]-estradiol (2-3 nM), 4° C., 18 hours, read-out: Ki ER-α

| SMILES | Ki [1, 3] [µM] | Ki [2] [µM] | also measured |
| --- | --- | --- | --- |
| CN(C)c1ccc(C(c2ccc(N(C)C)cc2)c2cc(Cl)ccc2Cl)cc1 [Example 24, 4',4"bis(dimethylamino)-2,5-dichlorotriphenylmethane] | – | – | Ki [1]: > 10 µM |
| CC(=O)OCCN(C)c1ccc(C(c2ccc(N(C)CCOC(C)=O)cc2)c2cc([N+](=O)[O-])ccc2Cl)cc1 [Example 31, 4',4"bis(N-(2-acetoxyethyl) N-methylamino)-2-chloro-5-nitrotriphenylmethane] | > 10 | – | – |
| CN(CCO)c1ccc(C(c2ccc(N(C)CCO)cc2)c2cc([N+](=O)[O-])ccc2Cl)cc1 [Example 32, 4',4"bis(N-(2-hydroxyethyl) N-methylamino)-2-chloro-5-nitrotriphenylmethane] | > 10 | – | – |
| CN(C(=O)OC(C)(C)C)c1ccc(C(c2ccc(N(C)C(=O)OC(C)(C)C)cc2)c2cc([N+](=O)[O-])ccc2Cl)cc1 [Example 35, 4',4"bis(N-(t-butoxycarbonyl) N-methylamino)-2-chloro-5-nitrotriphenylmethane] | – | 4.56 | – |
| CN(C)c1ccc(C(c2ccc(N(C)C)cc2)c2cc(NC(=O)/C=C/c3ccc([N+](=O)[O-])cc3)ccc2Cl)cc1 [Example 61, 4',4"bis(dimethylamino)-2-chloro-5-(4-nitrocinnamido)triphenylmethane] | – | 4.6 | – |
